pIC50: −log10 of the molar value.
Legend:
[1] = molecular target: T1, enzyme FAAH (Fatty Acid Amide Hydrolase) (Mus musculus, UniProt O08914); assay: FAAH radioenzymatic test, hydrolysis of anandamide [ethanolamine 1-3H] (Protocol 1); format: biochemical; conditions: mouse brain membrane homogenate, anandamide 10 μM, preincubation 20 min at 25° C.
T1 construct: The membrane homogenates are prepared extemporaneously by homogenizing the tissues; from tissue; host or cells: mouse brain (minus the cerebellum), membrane homogenate
T1 sequence (O08914 1-579): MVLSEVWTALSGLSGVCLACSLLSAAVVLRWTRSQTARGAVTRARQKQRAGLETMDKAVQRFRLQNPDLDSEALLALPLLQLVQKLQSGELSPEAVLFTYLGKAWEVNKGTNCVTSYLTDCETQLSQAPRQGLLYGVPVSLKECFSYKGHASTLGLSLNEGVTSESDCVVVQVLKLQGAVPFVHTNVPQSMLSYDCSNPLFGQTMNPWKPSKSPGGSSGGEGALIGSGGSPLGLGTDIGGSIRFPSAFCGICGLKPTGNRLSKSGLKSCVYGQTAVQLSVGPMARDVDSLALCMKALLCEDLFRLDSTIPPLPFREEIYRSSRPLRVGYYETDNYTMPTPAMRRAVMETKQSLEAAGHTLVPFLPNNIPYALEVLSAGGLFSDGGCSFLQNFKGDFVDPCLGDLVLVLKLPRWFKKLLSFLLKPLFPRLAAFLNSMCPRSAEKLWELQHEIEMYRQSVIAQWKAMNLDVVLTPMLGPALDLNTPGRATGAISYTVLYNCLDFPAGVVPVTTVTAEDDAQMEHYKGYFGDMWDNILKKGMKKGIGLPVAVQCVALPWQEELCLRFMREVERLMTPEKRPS
Procedure: Thus, mouse brains (minus the cerebellum) are removed and stored at −80° C. The membrane homogenates are prepared extemporaneously by homogenizing the tissues using a Precellys® machine in reaction buffer (10 mM Tris-HCl, pH=8, 150 mM NaCl and 1 mM ethylenediaminetetraacetic acid (EDTA)). The enzymatic reaction is performed in 96-well Multiscreen filtration plates in a final volume of 70 μL. Reaction buffer supplemented with fatty acid-free bovine serum albumin (BSA, 1 mg/ml) is used for the enzymatic reaction and the dilution of the compounds and of the anandamide [ethanolamine 1-^3H]. The reaction buffer containing BSA (43 μL/well), the diluted test compounds at different concentrations (7 μL/well containing 1% DMSO) and the membrane preparation (10 μL/well, i.e. […] of tissue per test) are successively added to the wells. After preincubation for 20 minutes of the compounds with the enzyme at 25° C., the reaction is started by adding anandamide [ethanolamine 1-^3H]. (Specific activity of 15-20 Ci/mmol) diluted with cold anandamide (10 μL/well, final concentration of 10 μM, 0.01 ρCi per test). After incubation for 20 minutes at 25° C., the enzymatic reaction is stopped by adding a […] solution of active charcoal prepared in 1.5M NaCl buffer and 0.5 M HCl (50 μL/well). The mixture is stirred for 10 minutes and the aqueous phase containing the ethanolamine [1-^3H] is then recovered by filtration under vacuum and counted by liquid scintillation.

[2] = test system: male OF1 mice; assay: test of analgesia: PBQ-induced abdominal stretching; format: in vivo, mouse; conditions: 30 mg/kg p.o. at 120 minutes
Procedure: The in vivo activity of the compounds of the invention was evaluated in a test of analgesia.
Thus, the intraperitoneal (i.p.) administration of PBQ (phenylbenzoquinone, 2 mg/kg in 0.9% sodium chloride solution containing 5% ethanol) to male OF1 mice weighing 25 to 30 g causes abdominal stretching, on average 30 torsions or contractions within a period of 5 to 15 minutes after injection. The test compounds are administered orally (p.o.) or intraperitoneally (i.p.) suspended in Tween 80 at 0.5%, 60 minutes or 120 minutes before the administration of PBQ. Under these conditions, the compounds of the invention that are the most powerful reduce by 30% to 80% the number of stretches induced with PBQ, over a dose range of between 1 and 30 mg/kg.

[3] = molecular target: T1, enzyme FAAH (Fatty Acid Amide Hydrolase); assay: FAAH fluorescent enzymatic test, hydrolysis of AAMC (Protocol 2); format: biochemical; conditions: mouse brain homogenate, AAMC 10 μM, preincubation 20 min at 25° C.
Procedure: Thus, mouse brains (minus the cerebellum) are withdrawn and stored at −80° C. The brain homogenates are prepared extemporaneously by homogenizing the tissues using a Precellys® machine in reaction buffer (10 mM Tris-HCl, pH=8, 150 mM NaCl and 1 mM ethylenediaminetetraacetic acid (EDTA)). The enzymatic reaction is performed in black polystyrene 384-well plates in a final volume of 50 μL. Reaction buffer supplemented with fatty acid-free bovine serum albumin (BSA, 1 mg/ml) is used for the enzymatic reaction, the dilution of the compounds and the dilution of the AAMC. Reaction buffer containing the BSA (25 μL/well), the diluted test compounds at different concentrations (5 μL/well containing 1% DMSO) and the membrane preparation (10 μL/well, i.e. 200 μg of tissue per test) are successively added to the wells. After preincubation for 20 minutes of the compounds with the enzyme at 25° C., the reaction is started by adding 10 μL of substrate per well (AAMC, final concentration of 10 μM). After incubation for 40 minutes, the aminomethyl coumarin (AMC) produced is measured by fluorescent counting (Envision plate reader).

Row | pIC50 [1] | melting point | SMILES | also measured
1 | 8.70 | – | NC(=O)c1cc(COC(=O)NCCC2CCN(c3nccc(C(F)(F)F)n3)CC2)on1 [Compound 38] | –
2 | 9.00 | 220 to 222 °C | NC(=O)c1cc(COC(=O)NCCC2CCN(c3ccc4cc(Cl)ccc4n3)CC2)on1 [Compound 1, 3-carbamoylisoxazol-5-ylmethyl 2-[1-(6-chloroquinolin-2-yl)piperidin-4-yl]ethylcarbamate] | reduction of the number of stretches induced with PBQ [2]: 55%
3 | 7.40 | 122 to 124 °C | Cn1ncnc1COC(=O)NCCC1CCN(c2ccc3cc(Cl)ccc3n2)CC1 [Compound 2, 2-methyl-2H-[1,2,4]triazol-3-ylmethyl 2-[1-(6-chloroquinolin-2-yl)piperidin-4-yl]ethylcarbamate] | –
4 | 8.70 | 139 to 141 °C | O=C(NCCC1CCN(c2ccc(-c3ccc(F)cc3)cn2)CC1)OCc1csnn1 [Compound 9, [1,2,3]thiadiazol-4-ylmethyl 2-[5′-(4-fluorophenyl)-3,4,5,6-tetrahydro-2H-[1,2′]bipyridinyl-4-yl]ethylcarbamate] | –
5 | 8.70 | 110 to 112 °C | CCc1noc(COC(=O)NCCC2CCN(c3ccc(-c4ccc(F)cc4)cn3)CC2)n1 [Compound 5, 3-ethyl[1,2,4]oxadiazol-5-ylmethyl 2-[5′-(4-fluorophenyl)-3,4,5,6-tetrahydro-2H-[1,2′]bipyridinyl-4-yl]-ethylcarbamate] | –
6 | – | 156 to 158 °C | CNC(=O)c1cc(COC(=O)NC2CCN(c3ccc([N+](=O)[O-])cc3C(F)(F)F)CC2)on1 [Compound 76, 3-methylcarbamoylisoxazol-5-ylmethyl [1-(4-nitro-2-trifluoromethylphenyl)piperidin-4-yl]carbamate] | –
7 | – | 212 to 215 °C | CNC(=O)c1cc(COC(=O)NCCC2CCN(c3ccc(-c4ccc(F)cc4)cc3)CC2)on1 [Compound 29, 3-methylcarbamoylisoxazol-5-ylmethyl 2-[1-(4′-fluorobiphenyl-4-yl)piperidin-4-yl]ethylcarbamate] | pIC50 [3]: 9.15
8 | – | 171 to 173 °C | NC(=O)c1cc(COC(=O)NC2CCCN(c3nccc(C(F)(F)F)n3)CC2)on1 (racemic) [Compound 74, 3-carbamoylisoxazol-5-ylmethyl (±)[1-(4-trifluoromethylpyrimidin-2-yl)azepan-4-yl]carbamate] | –
9 | – | 191 to 193 °C | O=C(NCCC1CCN(c2ccc3cc(Cl)ccc3n2)CC1)OCc1nsc(-c2ccc(Cl)cc2)n1 [Compound 17, 5-(4-chlorophenyl)[1,2,4]thiadiazol-3-ylmethyl 2-[1-(6-chloroquinolin-2-yl)piperidin-4-yl]ethylcarbamate] | –
10 | – | 187 to 189 °C | CNC(=O)c1cc(COC(=O)NCC2(F)CCN(c3nccc(C(F)(F)F)n3)CC2)on1 [Compound 57, 3-methylcarbamoylisoxazol-5-ylmethyl [4-fluoro-1-(4-trifluoromethylpyrimidin-2-yl)piperidin-4-yl]methylcarbamate] | –
11 | 9.00 | 202 to 204 °C | NC(=O)c1cc(COC(=O)NCCC2CCN(c3ccc(-c4ccc(F)cc4)cn3)CC2)on1 [Compound 19, 3-carbamoylisoxazol-5-ylmethyl 2-[5′-(4-fluorophenyl)-3,4,5,6-tetrahydro-2H-[1,2′]bipyridinyl-4-yl]ethylcarbamate] | reduction of the number of stretches induced with PBQ [2]: 30%
12 | – | 172 to 176 °C | NC(=O)c1cc(COC(=O)NCCC2CCN(c3ccc(-c4cccc(F)c4)cn3)CC2)on1 [Compound 28, 3-carbamoylisoxazol-5-ylmethyl 2-[5′-(3-fluorophenyl)-3,4,5,6-tetrahydro-2H-[1,2′]bipyridinyl-4-yl]ethylcarbamate] | –
13 | 7.33 | 169 to 170 °C | O=C(NCCC1CCN(c2ccc3cc(Cl)ccc3n2)CC1)OCc1nnc(-c2ccc(F)cc2)o1 [Compound 12, 5-(4-fluorophenyl)[1,3,4]oxadiazol-2-ylmethyl 2-[1-(6-chloroquinolin-2-yl)piperidin-4-yl]ethylcarbamate] | –
14 | – | 196 to 198 °C | Cn1ccnc1C(OC(=O)NCCC1CCN(c2ccc3cc(Cl)ccc3n2)CC1)C(F)(F)F (racemic) [Compound 73, 2,2,2-trifluoro-1-(1-methyl-1H-imidazol-2-yl)ethyl {2-[1-(6-chloroquinolin-2-yl)piperidin-4-yl]ethyl}carbamate] | –
15 | – | 95 to 97 °C | CC(C)c1nc(COC(=O)NCC2CCN(c3nccc4ccccc34)CC2)no1 [Compound 67, 5-isopropyl[1,2,4]oxadiazol-3-ylmethyl (1-isoquinolin-1-ylpiperidin-4-ylmethyl)carbamate] | –
16 | – | 232 to 234 °C | CNC(=O)c1cc(COC(=O)NC2CCN(c3cnc4cc(Cl)ccc4n3)CC2)on1 [Compound 77, 3-methylcarbamoylisoxazol-5-ylmethyl [1-(6-chloroquinoxalin-2-yl)piperidin-4-yl]carbamate] | –
17 | – | 155 to 157 °C | CNC(=O)c1cc(COC(=O)NCCC2CN(c3nccc(C(F)(F)F)n3)C2)on1 [Compound 83, 3-methylcarbamoylisoxazol-5-ylmethyl {2-[1-(4-trifluoromethylpyrimidin-2-yl)azetidin-3-yl]ethyl}carbamate] | –
18 | 7.80 | – | CN1CCN(C(=O)c2cc(COC(=O)NCCC3CCN(c4ccc(-c5ccc(F)cc5)cn4)CC3)on2)CC1 [Compound 46] | –
19 | – | 145 to 147 °C | CNC(=O)c1cc(COC(=O)NCCC2(CC(C)C)CCN(c3ccc([N+](=O)[O-])cc3C(F)(F)F)CC2)on1 [Compound 66, 3-methylcarbamoylisoxazol-5-ylmethyl {2-[4-isobutyl-1-(4-nitro-2-trifluoromethylphenyl)piperidin-4-yl]ethyl}carbamate] | –
20 | 9.22 | – | NC(=O)c1cc(COC(=O)NCCC2CCN(c3ccc(-c4ccc(F)cc4)nn3)CC2)on1 [Compound 41] | –
21 | – | 160 to 162 °C | O=C(NCCC1CCN(c2ccc3cc(Cl)ccc3n2)CC1)OCc1nc(-c2ccc(F)cc2)no1 [Compound 15, 3-(4-fluorophenyl)[1,2,4]oxadiazol-5-ylmethyl 2-[1-(6-chloroquinolin-2-yl)piperidin-4-yl]ethylcarbamate] | –
22 | – | 163 to 165 °C | NC(=O)c1cc(COC(=O)NCCC2CN(c3nccc(C(F)(F)F)n3)C2)on1 [Compound 82, 3-carbamoylisoxazol-5-ylmethyl {2-[1-(4-trifluoromethylpyrimidin-2-yl)azetidin-3-yl]ethyl}carbamate] | –

Row | SMILES | pIC50 [1] | melting point | also measured
23 | CCC1(CCNC(=O)OCc2cc(C(=O)NC)no2)CCN(c2cnc3cc(Cl)ccc3n2)CC1 [Compound 64] | 8.52 | – | –
24 | Cn1ccc(COC(=O)NCCCC2CCN(c3nccc(C(F)(F)F)n3)CC2)n1 [Compound 52] | 7.55 | – | –

Source: US8716289B2, “Carbamate derivatives of alkyl-heterocycles, preparation thereof and therapeutic use thereof” (Sanofi, priority 2008, dated 2014)
